Laboratory results taken from patent US20230374015A1, “INHIBITORS OF FIBROBLAST GROWTH FACTOR RECEPTOR KINASES” (Kinnate Biopharma Inc., priority 2020, published 2023).

What follows are compounds tested against FGFR2 (Homo sapiens, UniProt P21802) (assay: FGFR2 Kinase Protocol - Condition 2 (Reaction Biology HotSpot radiometric kinase assay, no preincubation)). Settings: poly[Glu:Tyr] (4:1) 0.2 mg/ml, ATP 100 microM, 2 hr room temperature.
Assay type: biochemical
In short: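 Radiometric HotSpot format: FGFR2 (wildtype or V564F) with poly[Glu:Tyr] (4:1) at 0.2 mg/ml in HEPES pH 7.5 buffer with 1% DMSO; ATP plus [γ33P]ATP at 100 µM total, added without preincubation. Reactions ran 2 hr at room temperature, then filter-bound. IC50 from 10-dose, 3-fold series versus DMSO control.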

FGFR2, sequence (P21802 22-821): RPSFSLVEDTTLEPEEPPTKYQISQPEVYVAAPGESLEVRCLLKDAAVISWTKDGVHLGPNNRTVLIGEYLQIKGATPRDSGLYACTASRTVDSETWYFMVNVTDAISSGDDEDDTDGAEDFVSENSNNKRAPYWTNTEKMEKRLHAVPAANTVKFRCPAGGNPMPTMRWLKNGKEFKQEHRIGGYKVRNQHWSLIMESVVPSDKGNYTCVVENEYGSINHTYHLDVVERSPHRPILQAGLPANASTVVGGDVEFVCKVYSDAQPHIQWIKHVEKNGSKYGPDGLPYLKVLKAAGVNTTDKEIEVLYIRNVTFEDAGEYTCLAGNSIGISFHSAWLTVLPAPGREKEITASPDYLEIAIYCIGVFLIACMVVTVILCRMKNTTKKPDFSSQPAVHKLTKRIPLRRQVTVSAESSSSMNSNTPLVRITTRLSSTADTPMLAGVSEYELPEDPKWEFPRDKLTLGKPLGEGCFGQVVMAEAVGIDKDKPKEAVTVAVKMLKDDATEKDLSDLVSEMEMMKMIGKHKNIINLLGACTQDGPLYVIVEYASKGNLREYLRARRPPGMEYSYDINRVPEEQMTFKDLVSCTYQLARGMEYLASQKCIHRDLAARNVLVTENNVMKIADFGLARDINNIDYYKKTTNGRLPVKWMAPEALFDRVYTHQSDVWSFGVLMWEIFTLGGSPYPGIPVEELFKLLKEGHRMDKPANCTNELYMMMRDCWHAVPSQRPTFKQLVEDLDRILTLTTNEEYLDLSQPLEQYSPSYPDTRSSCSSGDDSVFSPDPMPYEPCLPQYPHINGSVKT

| IC50 [nM] | SMILES |
| --- | --- |
| ≤ 100 | C=CC(=O)N1CC[C@H](n2nc(C#Cc3ccc4c(c3)ncn4C3CC3)c3c(N)ncnc32)C1 [Example 193, 1-[(3S)-3-{4-Amino-3-[2-(1-cyclopropyl-1,3-benzodiazol-5-yl)ethynyl]pyrazolo[3,4-d]pyrimidin-1-yl}pyrrolidin-1-yl]prop-2-en-1-one] |
| ≤ 100 | C=CC(=O)N1CC[C@H](n2nc(C#Cc3cc4ncn(C5CC5)c4c(F)c3F)c3c(N)ncnc32)C1 [Example 194, 1-[(3S)-3-{4-Amino-3-[2-(1-cyclopropyl-6,7-difluoro-1,3-benzodiazol-5-yl)ethynyl]pyrazolo[3,4-d]pyrimidin-1-yl}pyrrolidin-1-yl]prop-2-en-1-one] |
| ≤ 100 | C=CC(=O)N1CC[C@H](n2nc(C#Cc3c(F)cc4c(ncn4C4CC4)c3F)c3c(N)ncnc32)C1 [Example 195, 1-[(3S)-3-{4-Amino-3-[2-(1-cyclopropyl-4,6-difluoro-1,3-benzodiazol-5-yl)ethynyl]pyrazolo[3,4-d]pyrimidin-1-yl}pyrrolidin-1-yl]prop-2-en-1-one] |
| ≤ 100 | C=CC(=O)N1C[C@@H](n2nc(C#Cc3cc4ncn(C5CC5)c4cc3F)c3c(N)ncnc32)C[C@@H]1COC(F)F [Example 196, 1-((2R,4S)-4-(4-Amino-3-((1-cyclopropyl-6-fluoro-1H-benzo[d]imidazol-5-yl)ethynyl)-1H-pyrazolo[3,4-d]pyrimidin-1-yl)-2-((difluoromethoxy)methyl)pyrrolidin-1-yl)prop-2-en-1-one] |
| ≤ 100 | C=CC(=O)N1C[C@@H](n2nc(C#Cc3cc4ncn(C5CC5)c4cc3F)c3c(N)ncnc32)C[C@@H]1CF [Example 197, 1-((2R,4S)-4-(4-Amino-3-((1-cyclopropyl-6-fluoro-1H-benzo[d]imidazol-5-yl)ethynyl)-1H-pyrazolo[3,4-d]pyrimidin-1-yl)-2-(fluoromethyl)pyrrolidin-1-yl)prop-2-en-1-one] |
| ≤ 100 | C=CC(=O)N1C[C@@H](c2nc(C#Cc3cc4ncn(C5CC5)c4cc3F)c3c(N)ncnn23)C[C@@H]1COC [Example 199, 1-[(2R,4S)-4-{4-Amino-5-[2-(1-cyclopropyl-6-fluoro-1,3-benzodiazol-5-yl)ethynyl]imidazo[4,3-f][1,2,4]triazin-7-yl}-2-(methoxymethyl)pyrrolidin-1-yl]prop-2-en-1-one] |
| 100 to 1000 | C=CC(=O)N1CC[C@H](c2nc(C#Cc3cc4ncn(C5CC5)c4cc3F)c3c(N)nccn23)C1 [Example 201, 1-[(3 S)-3-{8-Amino-1-[2-(1-cyclopropyl-6-fluoro-1,3-benzodiazol-5-yl)ethynyl]imidazo[1,5-a]pyrazin-3-yl}pyrrolidin-1-yl]prop-2-en-1-one] |

The remaining lines, values behind:

| SMILES | IC50 [nM] |
| --- | --- |
| C=CC(=O)N1C[C@@H](n2nc(C#Cc3cc4ncn(C5CC5)c4cc3F)c3c(N)ncnc32)C[C@@H]1C(F)F [Example 178, 1-((2R,4S)-4-(4-amino-3-((1-cyclopropyl-6-fluoro-1H-benzo[d]imidazol-5-yl)ethynyl)-1H-pyrazolo[3,4-d]pyrimidin-1-yl)-2-(difluoromethyl)pyrrolidin-1-yl)prop-2-en-1-one] | ≤ 100 |
| C=CC(=O)N1C[C@@H](n2nc(C#Cc3cc4ncn(C)c4cc3Cl)c3c(N)ncnc32)C[C@@H]1C(F)F [Example 179, 1-((2R,4S)-4-(4-amino-3-((6-chloro-1-methyl-1H-benzo[d]imidazol-5-yl)ethynyl)-1H-pyrazolo[3,4-d]pyrimidin-1-yl)-2-(difluoromethyl)pyrrolidin-1-yl)prop-2-en-1-one] | ≤ 100 |
| C=CC(=O)N1C[C@@H](n2nc(C#Cc3cc4ncn(CC)c4cc3Cl)c3c(N)ncnc32)C[C@@H]1C(F)F [Example 180, 1-((2R,4S)-4-(4-amino-3-((6-chloro-1-ethyl-1H-benzo[d]imidazol-5-yl)ethynyl)-1H-pyrazolo[3,4-d]pyrimidin-1-yl)-2-(difluoromethyl)pyrrolidin-1-yl)prop-2-en-1-one] | ≤ 100 |
| C=CC(=O)N1C[C@@H](n2nc(C#Cc3cc4ncn(C)c4cc3F)c3c(N)nccc32)C[C@@H]1C(F)F [Example 181, 1-((2R,4S)-4-(4-amino-3-((6-fluoro-1-methyl-1H-benzo[d]imidazol-5-yl)ethynyl)-1H-pyrazolo[4,3-c]pyridin-1-yl)-2-(difluoromethyl)pyrrolidin-1-yl)prop-2-en-1-one] | ≤ 100 |
| C=CC(=O)N1C[C@@H](n2nc(C#Cc3cc4ncn(C5CC5)c4cc3F)c3c(N)nccc32)C[C@@H]1C(F)F [Example 182, 1-((2R,4S)-4-(4-amino-3-((1-cyclopropyl-6-fluoro-1H-benzo[d]imidazol-5-yl)ethynyl)-1H-pyrazolo[4,3-c]pyridin-1-yl)-2-(difluoromethyl)pyrrolidin-1-yl)prop-2-en-1-one] | ≤ 100 |
| C=CC(=O)N1C[C@@H](n2nc(C#Cc3cc4ncn(CC)c4cc3Cl)c3c(N)nccc32)C[C@@H]1C(F)F [Example 183, 1-((2R,4S)-4-(4-amino-3-((6-chloro-1-ethyl-1H-benzo[d]imidazol-5-yl)ethynyl)-1H-pyrazolo[4,3-c]pyridin-1-yl)-2-(difluoromethyl)pyrrolidin-1-yl)prop-2-en-1-one] | ≤ 100 |
| C=CC(=O)N1C[C@@H](n2nc(C#Cc3cc4ncn(C)c4cc3F)c3c(N)ncnc32)C[C@@H]1CF [Example 184, 1-[(2R,4S)-4-{4-Amino-3-[2-(6-fluoro-1-methyl-1,3-benzodiazol-5-yl)ethynyl]pyrazolo[3,4-d]pyrimidin-1-yl}-2-(fluoromethyl)pyrrolidin-1-yl]prop-2-en-1-one] | ≤ 100 |
| C=CC(=O)N1C[C@@H](n2nc(C#Cc3cc4ncn(C)c4cc3F)c3c(N)nccc32)C[C@@H]1CF [Example 185, 1-[(2R,4S)-4-{4-Amino-3-[2-(6-fluoro-1-methyl-1,3-benzodiazol-5-yl)ethynyl]pyrazolo[4,3-c]pyridin-1-yl}-2-(fluoromethyl)pyrrolidin-1-yl]prop-2-en-1-one] | ≤ 100 |
| C=CC(=O)N1C[C@@H](n2cc(C#Cc3cc4ncn(C)c4cc3F)c3c(N)ncnc32)C[C@@H]1CF [Example 186, 1-((2R,4S)-4-(4-Amino-5-((6-fluoro-1-methyl-1H-benzo[d]imidazol-5-yl)ethynyl)-7H-pyrrolo[2,3-d]pyrimidin-7-yl)-2-(fluoromethyl)pyrrolidin-1-yl)prop-2-en-1-one] | ≤ 100 |
| C=CC(=O)N1C[C@@H](n2nc(C#Cc3cc4ncn(C5CC5)c4cc3Cl)c3c(N)ncnc32)C[C@@H]1CC#N [Example 187, 2-[(2R,4S)-4-{4-Amino-3-[2-(6-chloro-1-cyclopropyl-1,3-benzodiazol-5-yl)ethynyl]pyrazolo[3,4-d]pyrimidin-1-yl}-1-(prop-2-enoyl)pyrrolidin-2-yl]acetonitrile] | ≤ 100 |
| C=CC(=O)N1C[C@@H](n2nc(C#Cc3ccc4c(c3)ncn4C3CC3)c3c(N)ncnc32)C[C@@H]1CC#N [Example 188, 2-[(2R,4S)-4-{4-Amino-3-[2-(1-cyclopropyl-1,3-benzodiazol-5-yl)ethynyl]pyrazolo[3,4-d]pyrimidin-1-yl}-1-(prop-2-enoyl)pyrrolidin-2-yl]acetonitrile] | ≤ 100 |
| C=CC(=O)N1CC[C@H](n2nc(C#Cc3cc4nc(C)n(C)c4c(F)c3F)c3c(N)ncnc32)C1 [Example 189, 1-[(3S)-3-{4-Amino-3-[2-(6,7-difluoro-1,2-dimethyl-1,3-benzodiazol-5-yl)ethynyl]pyrazolo[3,4-d]pyrimidin-1-yl}pyrrolidin-1-yl]prop-2-en-1-one] | ≤ 100 |
| C=CC(=O)N1CC[C@H](n2nc(C#Cc3cc4ncn(C5CC5)c4c(F)c3Cl)c3c(N)ncnc32)C1 [Example 190, 1-[(3S)-3-{4-Amino-3-[2-(6-chloro-1-cyclopropyl-7-fluoro-1,3-benzodiazol-5-yl)ethynyl]pyrazolo[3,4-d]pyrimidin-1-yl}pyrrolidin-1-yl]prop-2-en-1-one] | ≤ 100 |
| C=CC(=O)N1CC[C@H](n2nc(C#Cc3cc4ncn(C5CC5)c4cc3Cl)c3c(N)ncnc32)C1 [Example 191, 1-[(3S)-3-{4-Amino-3-[2-(6-chloro-1-cyclopropyl-1,3-benzodiazol-5-yl)ethynyl]pyrazolo[3,4-d]pyrimidin-1-yl}pyrrolidin-1-yl]prop-2-en-1-one] | ≤ 100 |
| C=CC(=O)N1CC[C@H](n2nc(C#Cc3cc4nc(C)n(C)c4cc3F)c3c(N)ncnc32)C1 [Example 192, 1-[(3S)-3-{4-Amino-3-[2-(6-fluoro-1,2-dimethyl-1,3-benzodiazol-5-yl)ethynyl]pyrazolo[3,4-d]pyrimidin-1-yl}pyrrolidin-1-yl]prop-2-en-1-one] | ≤ 100 |

Same assay, conditions: poly[Glu:Tyr] (4:1) 0.2 mg/ml, ATP 100 microM, 2 hr room temperature, given as numeric bound

| IC50 [nM] | SMILES |
| --- | --- |
| > 500 | C=CC(=O)N1C[C@H](c2nc(C#Cc3cc4ncn(C5CC5)c4cc3F)c3c(N)ncnn23)C[C@@H]1COC [Example 198, 1-[(2R,4R)-4-{4-Amino-5-[2-(1-cyclopropyl-6-fluoro-1,3-benzodiazol-5-yl)ethynyl]imidazo[4,3-f][1,2,4]triazin-7-yl}-2-(methoxymethyl)pyrrolidin-1-yl]prop-2-en-1-one] |
| > 500 | C=CC(=O)N1CC[C@H](c2nc(C#Cc3cc4ncn(C5CC5)c4cc3F)c3c(N)ncnn23)C1 [Example 200, (S)-1-(3-(4-Amino-5-((1-cyclopropyl-6-fluoro-1H-benzo[d]imidazol-5-yl)ethynyl)imidazo[5,1-f][1,2,4]triazin-7-yl)pyrrolidin-1-yl)prop-2-en-1-one] |
| > 500 | C=CC(=O)N1C[C@H](c2nc(C#Cc3cc4ncn(C5CC5)c4cc3F)c3c(N)nccn23)C[C@@H]1COC [Example 202, 1-[(2R,4R)-4-{8-Amino-1-[2-(1-cyclopropyl-6-fluoro-1,3-benzodiazol-5-yl)ethynyl]imidazo[1,5-a]pyrazin-3-yl}-2-(methoxymethyl)pyrrolidin-1-yl]prop-2-en-1-one] |
